“Also recorded” adds a separate entry of the source.
Legend:
Lewis lung carcinoma = Lewis lung carcinoma (IV inoculated) in vivo, median survival, 60-day test (Example 10); parameters: species or system B6 D2 F1 male mice; conditions: for Treated Group Survival Time (median): assigned 60 at end of test, control 18.4; for Percent Treated Animals/Control Animals: based on assigned 60 days
Excerpt: For example 10, B6 D2 F1 male mice were used and challenged with Lewis lung carcinoma.
In Example 10, forty control animals were used and ten test animals each at dose levels indicated below in Table 6. For both the control group and the drug treated group, tumors were induced by IV injection on day zero followed by initiating of drug treatment on day one. For example 10 water was used as the drug vehicle.
In both the control group and the drug treated group in Example 10, the animals were inoculated on day zero with a homogenate of 10^6 seed cells of Lewis lung carcinoma. For Example 10, drug treatment was started on day one and compound 1 given once daily for nine days. Day five was utilized as the cut-off date for details attributable to toxicity of the drug. […] Efficacy of treatment was determined by comparing median survival time of drug treated animals with median survival time of the control animals and is expressed as percentage increase of treated animals/control animals (T/C) as per Example 5.
The test period was for sixty days and at the end of the sixty day period all animals surviving in the test groups were evaluated as either cured, no-takes, or tumor survivors as per Example 5 above.
In this example, the drug treated animals were injected IP with the dose level noted in table 6 below. Ten animals were treated at each dose level. No control animals survived beyond day 23 with a median death data of day 18.4. […] Because of this fact, the T/C ratio noted in table 6 below is a constant figure based on assigning survival day rate of sixty to the treated animals and a median death date of 18.4 days to the control animals.

[1] = system: P388 lymphocytic leukemia; experiment: P388 lymphocytic leukemia in vivo, median survival, 30-day test (Examples 7 and 8); parameters: species or system CD2 F1 female mice
Procedure: For examples 7 and 8, CD2 F1 female mice were used and challenged with P388 lymphocytic leukemia tumors. […] The test period was for thirty days in both Examples 7 and 8.
For Examples 7 and 8, as well as Examples 9 and 10 below, any animal of the drug treated group which survived beyond the end of the testing period was then evaluated and placed in one of three groups. The first group was designated as cured, meaning the animal was successfully cured of the tumor. The second group designation was no-takes, meaning survival of the animal was considered to be due to failure of tumor implant. The remaining group was designated as tumor survivors meaning the animals lived beyond the test cut-off date but could not be classified as either cured or no-takes.
For both Examples 7 and 8, thirty animals were used as the control group and six animals each were used at each dose level indicated in tables 3 and 4 below in the drug treated groups. In both Examples 7 and 8, for both the control group and the drug treated groups, tumors were induced by IP inoculation of tumor seed cells on day zero followed by initiation of drug treatment on day one. For both Examples 7a and 8, saline with tween/80 was used as the drug vehicle. For Examples 7b and 7c, water was used as the drug vehicle.
In both the control group and the drug treated group in Examples 7 and 8, the test animals were inoculated on day zero IP with 10^6 seed cells of P388 lymphocytic leukemia. In both Examples 7 and 8, treatment of the drug group was started on day one and the drug was given IP once daily for nine days. Day six was utilized as the cut-off data for death attributable to toxicity of the drug. […] Efficacy of treatment was determined by comparing median survival time of the drug treated animals compared to median survival time of the control animals, and is expressed as percentage increase of treated animals/control animals (T/C) as per Example 5.
In this example drug treated animals were injected IP with the dose level noted in Table 3 below. Six animals were treated at each dose level. No control animals survived beyond day 18 with a median death date of day 12.6.
This examples was performed as per Example 7a at dose levels as noted in table 3b below. A survivor at both the 700 and 800 mg/Kg level was judged as cured. No controls survived beyond day 12 and the mean death day of the control group was day 11.
This example was run as per Example 7a above at dose levels noted in Table 3c below. All controls were dead by day 14 with a mean death day of day 11.9. At the 500 mg/Kg level, one animal was judged as a cure.
Compound 2, 2-(2,3,5-tri-O-acetyl-β-D-ribofuranosyl)thiazole-4-carboxamide was tested as per Example 7a above at dose levels noted in Table 4 below. No controls survived beyond day 18 with an average death date of day 12.6.

[2] = 100 mg/Kg, ten animals, sixty days

NC(=O)c1csc([C@@H]2O[C@H](CO)[C@@H](O)[C@H]2O)n1 [Compound 1, 2-β-D-Ribofuranosylthiazole-4-Carboxamide]
animals surviving the sixty day test period (Lewis lung carcinoma; 25 mg/Kg): all test animals survived | Treated Group Survival Time (median) (Lewis lung carcinoma; 25 mg/Kg IP once daily x9): 60 days | Percent Treated Animals/Control Animals (Lewis lung carcinoma; 25 mg/Kg IP once daily x9): 326% | Treated Group Survival Time (median) (Lewis lung carcinoma; 50 mg/Kg IP once daily x9): 60 days | Percent Treated Animals/Control Animals (Lewis lung carcinoma; 50 mg/Kg IP once daily x9): 326% | day of the one death (Lewis lung carcinoma; 50 mg/Kg, ten animals): 47 days | animals judged as cured (Lewis lung carcinoma; 50 mg/Kg, ten animals, sixty days): nine cures | Treated Group Survival Time (median) (Lewis lung carcinoma; 100 mg/Kg IP once daily x9): 60 days | Percent Treated Animals/Control Animals (Lewis lung carcinoma; 100 mg/Kg IP once daily x9): 326% | day of the one death (Lewis lung carcinoma; 100 mg/Kg, ten animals): 46 days | animals judged as cured (Lewis lung carcinoma; [2]): eight cures | tumor survivors (Lewis lung carcinoma; [2]): one tumor survivor | animals surviving the sixty day test period (Lewis lung carcinoma; 200 mg/Kg): all test animals survived | Treated Group Survival Time (median) (Lewis lung carcinoma; 200 mg/Kg IP once daily x9): 60 days | Percent Treated Animals/Control Animals (Lewis lung carcinoma; 200 mg/Kg IP once daily x9): 326% | animals judged as cured (Lewis lung carcinoma; 200 mg/Kg, ten animals, sixty days): all ten | animals surviving the sixty day test period (Lewis lung carcinoma; 400 mg/Kg): all test animals survived | Treated Group Survival Time (median) (Lewis lung carcinoma; 400 mg/Kg IP once daily x9): 60 days | Percent Treated Animals/Control Animals (Lewis lung carcinoma; 400 mg/Kg IP once daily x9): 326% | animals judged as cured (Lewis lung carcinoma; 400 mg/Kg, ten animals, sixty days): all ten | mortality attributable to drug toxicity (Lewis lung carcinoma; 25-400 mg/Kg, day five cut-off): no mortality attributable to drug toxicity | activity against Lewis lung carcinoma (Lewis lung carcinoma; Example 10): effective antitumor agent; also recorded: active antitumor agent; also recorded: outstanding activity | median survival time vs control (Lewis lung carcinoma; Example 10): dramatically extended | DN 2 criteria of the National Cancer Institute (Lewis lung carcinoma; Lewis lung carcinoma): successfully passed | cures at cessation of the test period (Lewis lung carcinoma; all but one dose level): at least 80% | cures at cessation of the test period (Lewis lung carcinoma; at two dose levels (200 and 400 mg/Kg)): 100% | Percent Treated Animals/Control Animals ([1]; Ex. 7a/8, saline with tween/80, 12.5 mg/Kg IP once daily x9): 110% | Treated Group Survival Time (median) ([1]; Ex. 7a/8, saline with tween/80, 12.5 mg/Kg IP once daily x9, control 12.6): 13.9 days | Percent Treated Animals/Control Animals ([1]; Ex. 7a/8, saline with tween/80, 25 mg/Kg IP once daily x9): 113% | Treated Group Survival Time (median) ([1]; Ex. 7a/8, saline with tween/80, 25 mg/Kg IP once daily x9, control 12.6): 14.3 days | Percent Treated Animals/Control Animals ([1]; Ex. 7a/8, saline with tween/80, 50 mg/Kg IP once daily x9): 121% | Treated Group Survival Time (median) ([1]; Ex. 7a/8, saline with tween/80, 50 mg/Kg IP once daily x9, control 12.6): 15.3 days | Percent Treated Animals/Control Animals ([1]; Ex. 7a/8, saline with tween/80, 100 mg/Kg IP once daily x9): 145% | Treated Group Survival Time (median) ([1]; Ex. 7a/8, saline with tween/80, 100 mg/Kg IP once daily x9, control 12.6): 18.3 days | Percent Treated Animals/Control Animals ([1]; Ex. 7a/8, saline with tween/80, 200 mg/Kg IP once daily x9): 150% | Treated Group Survival Time (median) ([1]; Ex. 7a/8, saline with tween/80, 200 mg/Kg IP once daily x9, control 12.6): 19.0 days | Percent Treated Animals/Control Animals ([1]; Ex. 7a/8, saline with tween/80, 400 mg/Kg IP once daily x9): 161% | Treated Group Survival Time (median) ([1]; Ex. 7a/8, saline with tween/80, 400 mg/Kg IP once daily x9, control 12.6): 20.3 days | surviving animals judged as no-take ([1]; Ex. 7a/8, 50 mg/Kg, thirty days): one drug treated animal survived and was judged as a no-take | Percent Treated Animals/Control Animals ([1]; Ex. 7b, water, 300 mg/Kg IP once daily x9): 198% | Treated Group Survival Time (median) ([1]; Ex. 7b, water, 300 mg/Kg IP once daily x9, control 11.0): 21.8 days | Percent Treated Animals/Control Animals ([1]; Ex. 7b, water, 400 mg/Kg IP once daily x9): 224% | Treated Group Survival Time (median) ([1]; Ex. 7b, water, 400 mg/Kg IP once daily x9, control 11.0): 24.7 days | Percent Treated Animals/Control Animals ([1]; Ex. 7b, water, 500 mg/Kg IP once daily x9): 190% | Treated Group Survival Time (median) ([1]; Ex. 7b, water, 500 mg/Kg IP once daily x9, control 11.0): 21.8 days | Percent Treated Animals/Control Animals ([1]; Ex. 7b, water, 600 mg/Kg IP once daily x9): 234% | Treated Group Survival Time (median) ([1]; Ex. 7b, water, 600 mg/Kg IP once daily x9, control 11.0): 25.8 days | Percent Treated Animals/Control Animals ([1]; Ex. 7b, water, 700 mg/Kg IP once daily x9): 245% | Treated Group Survival Time (median) ([1]; Ex. 7b, water, 700 mg/Kg IP once daily x9, control 11.0): 27.0 days | Percent Treated Animals/Control Animals ([1]; Ex. 7b, water, 800 mg/Kg IP once daily x9): 245% | Treated Group Survival Time (median) ([1]; Ex. 7b, water, 800 mg/Kg IP once daily x9, control 11.0): 27.0 days | survivors judged as cured ([1]; Ex. 7b, 700 mg/Kg, thirty days): A survivor | survivors judged as cured ([1]; Ex. 7b, 800 mg/Kg, thirty days): A survivor | Percent Treated Animals/Control Animals ([1]; Ex. 7c, water, 300 mg/Kg IP once daily x9): 193% | Treated Group Survival Time (median) ([1]; Ex. 7c, water, 300 mg/Kg IP once daily x9, control 11.9): 23.0 days | Percent Treated Animals/Control Animals ([1]; Ex. 7c, water, 400 mg/Kg IP once daily x9): 201% | Treated Group Survival Time (median) ([1]; Ex. 7c, water, 400 mg/Kg IP once daily x9, control 11.9): 24.0 days | Percent Treated Animals/Control Animals ([1]; Ex. 7c, water, 500 mg/Kg IP once daily x9): 210% | Treated Group Survival Time (median) ([1]; Ex. 7c, water, 500 mg/Kg IP once daily x9, control 11.9): 25.0 days | Percent Treated Animals/Control Animals ([1]; Ex. 7c, water, 600 mg/Kg IP once daily x9): 237% | Treated Group Survival Time (median) ([1]; Ex. 7c, water, 600 mg/Kg IP once daily x9, control 11.9): 28.3 days | Percent Treated Animals/Control Animals ([1]; Ex. 7c, water, 700 mg/Kg IP once daily x9): 86% | Treated Group Survival Time (median) ([1]; Ex. 7c, water, 700 mg/Kg IP once daily x9, control 11.9): 10. day | Percent Treated Animals/Control Animals ([1]; Ex. 7c, water, 800 mg/Kg IP once daily x9): 99% | Treated Group Survival Time (median) ([1]; Ex. 7c, water, 800 mg/Kg IP once daily x9, control 11.9): 11.8 days | animals judged as a cure ([1]; Ex. 7c, 500 mg/Kg, thirty days): one animal | animal mortality attributed to drug toxicity ([1]; Example 7b, day six cut-off): only one instance | activity against P388 lymphocytic leukemia ([1]; Examples 7 and 8, multiple dose): active antitumor agents; also recorded: active against P388 lymphocytic leukemia | DN 2 (Decision Network) criteria of the National Cancer Institute ([1]; P388): successfully passed
